{"source": "paper PMC12332266", "about": "(Frontiers in Pharmacology, 2025)", "key": {"[1]": {"tested_on": "hiPSC-CM (iCell Cardiomyocytes^2)", "test": "Intracellular miRNA expression by RT-qPCR in hiPSC-CM pellets after 72-hour treatment", "conditions": "for fold induction at 0.1 µM / fold induction at 0.3 µM / fold induction at 3 µM / fold induction at 10 µM: Homo sapiens", "method_in_brief": "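After 72-hour treatment and RTCA CardioECR assessment, total RNA from hiPSC-CM pellets was reverse transcribed, pre-amplified and quantified by TaqMan RT-qPCR against a 17-miRNA panel. Triplicates were pooled, so no statistical analysis was performed.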"}, "[2]": {"tested_on": "hiPSC-CM (iCell Cardiomyocytes^2)", "test": "RTCA CardioECR assessment (impedance and electrophysiology parameters)", "conditions": "human, 72 h", "method_in_brief": "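iCell^2 cardiomyocytes on fibronectin-coated ePlates monitored continuously by impedance for cell index, beating rate and amplitude. Field potential duration and spike amplitude were recorded from day 4–6 after monolayer formation. Data were double-normalized to DMSO control and baseline, with variability given as SD.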"}, "[3]": {"conditions": "ref extensive literature search, cited from earlier work"}, "[4]": {"tested_on": "hiPSC-CM (iCell Cardiomyocytes^2)", "conditions": "human", "description": "(§1) To extract total RNA from the culture media, hiPSC-CM were plated on 24-well plates by seeding 275,000 cells per mL per well. hiPSC-CM were maintained for 7 days in 200 µL of iCell^2 Maintenance Medium (iCell^2 MM; FCDI) for the 48-well ePlate and in 1 mL for 24-well plate, before drug treatment. Culture media change was performed every 2 days.\n(§2) Stock solutions were diluted 1:1000 in iCell^2 MM before treatment and equilibrated at 37°C. As vehicle control, DMSO 0.1% was added to the media. Drug treatments on biological replicates (n = 3) were refreshed daily, and culture media was collected for further miRNA analysis. After 72 h, cell pellets were collected and stored at −80°C until total RNA extraction.\n(§3) hiPSC-CM culture media was collected daily from 24-well plates, and centrifuged (+4°C, 11,000 rpm) for 5 min to remove cellular debris/cells. Total RNA was extracted from 300 µL of supernatant by Trizol/Chloroform phase separation and purification of total RNA by miRNeasy 96 Kit (Qiagen, Hilden, Germany). The spike-in control cel-miR-39 (Qiagen, Hilden, Germany) was used to check the quality of samples and PCR efficiency. DNase treatment (RNase-Free DNase Set (Qiagen, Hilden, Germany)) was applied according to the manufacturer’s instructions. After the RNA extraction, the same RT-qPCR protocol as for hiPSC-CM lysate was followed. Multiple unpaired t-tests were performed to compare delta CT-values (CT-values normalized to the housekeeping miRNAs) of the treatment groups to the DMSO control.\n(§4) Analysis of miRNA in the culture media of hiPSC-CM treated with structural cardiotoxicants was performed at 24-, 48- and 72-hour post-treatment. […] The treatment concentrations were selected based on the MEC for CI to ensure that the preliminary evidence of cardiotoxicity in hiPSC-CMs could potentially lead to miRNA release in the culture media."}, "[5]": {"tested_on": "hiPSC-CM (iCell Cardiomyocytes^2)", "test": "miRNA in hiPSC-CM culture media by RT-qPCR at 24, 48 and 72 h post-treatment;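 note: medium RNA quantified by RT-qPCR, CT-values normalized to housekeeping miRNAs, compared against DMSO control, doses chosen from the MEC for CI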", "conditions": "3 µM", "description": "as §1, §2, §3, §4"}, "[6]": {"conditions": "72 h, read-out: hsa-miR-7-5p fold change"}, "[7]": {"conditions": "72 h, read-out: hsa-miR-29a-5p fold change"}, "[8]": {"conditions": "72 h, read-out: hsa-miR-126-3p fold change"}, "[9]": {"conditions": "72 h, read-out: hsa-miR-133b fold change"}, "[10]": {"conditions": "72 h, read-out: hsa-miR-146b-5p fold change"}, "[11]": {"conditions": "72 h, read-out: hsa-miR-182-5p fold change"}, "[12]": {"conditions": "72 h, read-out: hsa-miR-185-3p fold change"}, "[13]": {"conditions": "72 h, read-out: hsa-miR-187-3p fold change"}, "[14]": {"conditions": "72 h, read-out: hsa-miR-208b-3p fold change"}, "[15]": {"conditions": "72 h, read-out: hsa-miR-365a-5p fold change"}}, "note": "Read-outs that look alike come from different tables or passages of the source.", "data": [{"smiles": "Cc1[nH]c(=O)c(C#N)cc1-c1ccncc1", "note": "[Milrinone]", "values": [{"measurement": "miRNAs hiPSC-CM pellet, MEC overall", "setting": "[1]", "result": 0.1, "unit": "µM"}, {"measurement": "miRNAs upregulated at the MEC overall (hiPSC-CM pellet)", "setting": "[1]", "result": "miR-126-3p, miR-133b, miR-146b-5p"}, {"measurement": "fold induction at 0.1 µM", "setting": "[1]; [6]", "result": 1.1}, {"measurement": "fold induction at 0.3 µM", "setting": "[1]; [6]", "result": 1.1}, {"measurement": "fold induction at 3 µM", "setting": "[1]; [6]", "result": 0.5}, {"measurement": "fold induction at 10 µM", "setting": "[1]; [6]", "result": 1.3}, {"measurement": "fold induction at 0.1 µM", "setting": "[1]; [7]", "result": 0.6}, {"measurement": "fold induction at 0.3 µM", "setting": "[1]; [7]", "result": 0.02}, {"measurement": "fold induction at 10 µM", "setting": "[1]; [7]", "result": 0.3}, {"measurement": "fold induction at 0.1 µM", "setting": "[1]; [8]", "result": 7.7}, {"measurement": "fold induction at 0.3 µM", "setting": "[1]; [8]", "result": 5.9}, {"measurement": "fold induction at 3 µM", "setting": "[1]; [8]", "result": 0.4}, {"measurement": "fold induction at 10 µM", "setting": "[1]; [8]", "result": 1.7}, {"measurement": "fold induction at 0.1 µM", "setting": "[1]; [9]", "result": 2.2}, {"measurement": "fold induction at 0.3 µM", "setting": "[1]; [9]", "result": 2.6}, {"measurement": "fold induction at 3 µM", "setting": "[1]; [9]", "result": 3.5}, {"measurement": "fold induction at 10 µM", "setting": "[1]; [9]", "result": 2.5}, {"measurement": "fold induction at 0.1 µM", "setting": "[1]; [10]", "result": 3.6}, {"measurement": "fold induction at 0.3 µM", "setting": "[1]; [10]", "result": 19}, {"measurement": "fold induction at 3 µM", "setting": "[1]; [10]", "result": 5}, {"measurement": "fold induction at 10 µM", "setting": "[1]; [10]", "result": 3}, {"measurement": "fold induction at 0.1 µM", "setting": "[1]; [11]", "result": 1.9}, {"measurement": "fold induction at 0.3 µM", "setting": "[1]; [11]", "result": 1.6}, {"measurement": "fold induction at 3 µM", "setting": "[1]; [11]", "result": 0.9}, {"measurement": "fold induction at 10 µM", "setting": "[1]; [11]", "result": 1.3}, {"measurement": "fold induction at 0.3 µM", "setting": "[1]; [12]", "result": 0.2}, {"measurement": "fold induction at 3 µM", "setting": "[1]; [12]", "result": 16.3}, {"measurement": "fold induction at 10 µM", "setting": "[1]; [12]", "result": 0.9}, {"measurement": "fold induction at 0.3 µM", "setting": "[1]; [13]", "result": 3.7}, {"measurement": "fold induction at 3 µM", "setting": "[1]; [13]", "result": 1.2}, {"measurement": "fold induction at 10 µM", "setting": "[1]; [13]", "result": 3.3}, {"measurement": "fold induction at 0.1 µM", "setting": "[1]; [14]", "result": 1.3}, {"measurement": "fold induction at 0.3 µM", "setting": "[1]; [14]", "result": 1.8}, {"measurement": "fold induction at 3 µM", "setting": "[1]; [14]", "result": 2.1}, {"measurement": "fold induction at 10 µM", "setting": "[1]; [14]", "result": 2.4}, {"measurement": "fold induction at 0.1 µM", "setting": "[1]; [15]", "result": 3.7}, {"measurement": "fold induction at 0.3 µM", "setting": "[1]; [15]", "result": 4.9}, {"measurement": "fold induction at 3 µM", "setting": "[1]; [15]", "result": 0.4}, {"measurement": "fold induction at 10 µM", "setting": "[1]; [15]", "result": 1.1}, {"measurement": "hsa-miR-7-5p fold change, intracellular", "setting": "[1]; human, 72 h, 3 µM", "result": 0.5}, {"measurement": "hsa-miR-182-5p fold change, intracellular", "setting": "[1]; human, 72 h, 3 µM", "result": 0.9}, {"measurement": "hsa-miR-185-3p fold change, intracellular", "setting": "[1]; human, 72 h, 3 µM", "result": 16.3}, {"measurement": "hsa-miR-365a-5p fold change, intracellular", "setting": "[1]; human, 72 h, 3 µM", "result": 0.4}, {"measurement": "Field Potential Duration MEC", "setting": "[2]", "result": 0.3, "unit": "µM"}, {"measurement": "Spike Amplitude (SA) MEC", "setting": "[2]", "result": 0.1, "unit": "µM"}, {"measurement": "Cmax total", "setting": "[3]; Supplementary Table 1", "result": "620 to 1180", "unit": "nM"}, {"measurement": "Cmax total", "setting": "[3]; Table 1", "result": "620 to 1180", "unit": "nM"}, {"measurement": "miRNAs in culture media of hiPSC-CM, in words", "setting": "[4]", "result": "hsa-miR-7-5p and hsa-miR-126-3p, were upregulated after 72-hour exposure"}, {"measurement": "miRNAs in culture media of hiPSC-CM, in words", "setting": "[4]; 3 µM", "result": "for hsa-miR-126-3p, upregulation was also observed after 24-hour treatment"}, {"measurement": "hsa-miR-126-3p fold change, culture media", "setting": "[5]; 24h", "result": 3.9}, {"measurement": "hsa-miR-208b-3p fold change, culture media", "setting": "[5]; 24h", "result": 6.0}, {"measurement": "hsa-miR-[…] change, culture media", "setting": "[5]; 24h", "result": 3.5}, {"measurement": "hsa-miR-133b fold change, culture media", "setting": "[5]; 48h", "result": 0.8}, {"measurement": "hsa-miR-208b-3p fold change, culture media", "setting": "[5]; 48h", "result": 2.8}, {"measurement": "hsa-miR-[…] change, culture media", "setting": "[5]; 48h", "result": 1.4}, {"measurement": "hsa-miR-7-5p fold change, culture media", "setting": "[5]; 72 h", "result": 9.1}, {"measurement": "hsa-miR-126-3p fold change, culture media", "setting": "[5]; 72 h", "result": 2.5}, {"measurement": "hsa-miR-133b fold change, culture media", "setting": "[5]; 72 h", "result": 2.5}, {"measurement": "hsa-miR-208b-3p fold change, culture media", "setting": "[5]; 72 h", "result": 0.6}, {"measurement": "hsa-miR-[…] change, culture media", "setting": "[5]; 72 h", "result": 4.4}]}]}
